# According to patent US20240268372A1, “Methods and Compositions for Extending Organ and Tissue Preservation” (The General Hospital Corporation, priority 2021, published 2024):
# Several values for one entry are separate records, joined by “and”; a condition that tells them apart may be missing. Identical values can stand only once.
# What was measured:
# [1] = system: whole rat livers; assay: Optimized partial freezing of whole rat livers: ex vivo simulated transplantation (normothermic reperfusion with whole blood)
# Experimental: (§1) Within this standardized protocol, we first compared GLY, EG, and PG as main permeating CPA using a freezing temperature of −10° C. and storage duration of 1 day (FIG. 37). Using PG as the CPA, we subsequently tested the effect of freezing temperature (−10° C. vs −15° C.) and storage duration (1 day vs 5 days) on liver viability after partial freezing using the same protocol (FIG. 38).
# The Affinity Pixie Oxygenator is a clinical grade oxygenator that has graduated fiber bundle density technology and radial flow path that is designed to create a more uniform blood flow, enhance gas transfer, reduce pressure drops, and decrease prime volume. Moreover, it also contains a Balance® Biosurface that contains a hydrophilic polymer coating to reduce platelet adhesion and activation. This adaptation to the oxygenator is essential since recirculating whole blood during simulated transplantation may trigger coagulation and inflammatory events that are not representative of in vivo events and could skew observed outcomes.
# (§2) Machine perfusion system: The perfusion system provides a continuous perfusion through the portal vein that is pressure, flow, and temperature controlled. The perfusates can be either recirculated or flushed with a single pass though the liver and perfusates can be changed without interrupting perfusion. The setup and operation of the perfusion system is described in detail elsewhere (see, e.g., ref. 15). There were two oxygenators used in this study, including the Radnoti (Cat #130144) and Affinity Pixie Oxygenator (Cat #BBP241). Due to the flexibility and low cost of the Radnoti oxygenator, it was first used for initial optimization and characterization studies, including determining the effect of permeating CPAs (GLY vs EG vs PG; FIG. 37), temperature (−10 vs −15° C., FIG. 38) storage duration (1 vs 5 days, FIG. 38), and warm ischemic injury.
# Preconditioning during SNMP: Directly after procurement the livers were perfused with 250 ml of SNMP preloading solution (see Table 7 for composition of all solutions). The perfusion temperature was set at 21° C. and perfusion was initiated at 5 ml/min. […] Next, the livers were perfused for 30 additional minutes to allow for cellular uptake of 3-O-methyl-D-glucose (3-OMG).
# Preloading of CPAs during HMP: The SNMP preloading solution was gradually switched to HMP preloading solution in […] increments, each with 10% decreasing and 10% increasing volumetric fractions of SNMP and HMP preloading solution, respectively. During this switch, the perfusion temperature was lowered to 4° C., and flows were adjusted to a maximum perfusion pressure of 3 mmHg. Dependent on the flowrate, the solution switch took 10-15 minutes. The HMP preloading was continued for 30 additional minutes to ensure complete equilibration of the solution throughout the peripheral liver tissue.
# This was done in 10 fractions of 10 ml, each with 10% decreasing and 10% increasing volumetric fractions of HMP preloading solution and storage solution, respectively. During this switch, the perfusion temperature was maintained at 4° C., and the flowrates were lowered to ensure a maximum perfusion pressure of 3 mmHg. The final 15 ml fraction of 100% storage solution was loaded at a fixed flowrate of 0.5 ml/min.
# Partial freezing: After loading of the storage solution, the liver was placed in a bag with 50 ml fresh storage solution and suspended in a pre-cooled chiller (Engel, Schwertberg, Austria). Depending on the experimental condition the chiller temperature was pre-cooled to −10° C. or −15° C. and the liver stored for […] 5 days.
# [2] = system: whole rat livers; assay: Optimized partial freezing of whole rat livers: SNMP recovery after freezing; conditions: −15° C., 5 days; at 3 h
# Experimental: as §1
# as §2, with “injury. Once the major aspects of the protocol were optimized and characterized, we used the clinical grade Affinity Pixie Oxygenator. […]” for “injury.”
# [3] = −10° C., 1 day, at 2 h of simulated transplantation
# [4] = clinical grade oxygenator, −15° C., 1 day
# [5] = clinical grade oxygenator, −15° C., 1 day, at 2 h
# [6] = clinical grade oxygenator, −15° C., 5 day
# [7] = clinical grade oxygenator, −15° C., 5 day, at 2 h
smiles,measurement,setting,value
"OCCO [EG, ethylene glycol]",bile production during simulated transplantation,"[1]; −10° C., 1 day",did not produce bile
same,lactate clearance after first hour of simulated transplantation,"[1]; −10° C., 1 day",not observed
same,"microscopic tissue structure (H&E, blinded pathologist)","[1]; −10° C., 1 day",favorable to modest results
same,oxygen uptake during simulated transplantation,"[1]; −10° C., 1 day, at 2 h",21.4 ± 5.8 µL O2/min/g
same,tissue adenylate energy charge,"[1]; −10° C., 1 day, at 2 h",0.088±0.065
same,weight gain during simulated transplantation,"[1]; −10° C., 1 day, at 2 h",2.50±5.26%
same,AST levels,[1]; [3],967±330 U/L
same,portal lactate concentration,[1]; [3],6.68 ± 1.71 mM
"CC(O)CO (stereo not shown) [PG, propylene glycol]",weight gain during SNMP recovery after freezing,[2],40.00±4.32%
same,lactate,"[1]; 30 minutes warm ischemia prior to freezing at −10° C. for 1 day, at 2 h of simulated transplantation",6.37 ± 1.09 mM
same,HSP70 in perfusate,"[1]; clinical grade oxygenator, 1 day frozen vs Clinical Oxy. Controls",increase
same,TNFα levels in perfusate,"[1]; clinical grade oxygenator, across all groups",no changes
same,8OHdG in perfusate,"[1]; clinical grade oxygenator, frozen livers versus controls",significantly lower
same,maximum ALT,[1]; [4],722.00±155.74 U/L
same,maximum AST,[1]; [4],958.67±278.50 U/L
same,potassium level at end of simulated transplantation,[1]; [4],5.23 ± 0.252 mM
same,bile production,[1]; [5],0.67 ± 0.92 µL/g
same,liver weight gain during simulated transplantation,[1]; [5],12.00±8.66%
same,vascular resistance,[1]; [5],0.004±0.002 mmHg*min*mL-i*g^−1
same,maximum ALT,[1]; [6],886.67±241.80 U/L
same,maximum AST,[1]; [6],1190.33±117.35 U/L
same,potassium level at end of simulated transplantation,[1]; [6],5.167 ± 0.404 mM
same,bile production,[1]; [7],2.92 ± 3.74 µL/g
same,vascular resistance,[1]; [7],0.007±0.010 mmHg*min*mL-i*g^−1
same,tissue adenylate energy charge,"[1]; clinical grade oxygenator, −15° C., 5 days",0.131±0.031
same,liver weight gain during simulated transplantation,"[1]; clinical grade oxygenator, −15° C., 5 days, at 2 h",26.00±15.13%
same,microscopic tissue structure,"[1]; −10° C. and −15° C., 1 day",some disruption of the lobular architecture with intact portal triads and hepatocyte swelling
same,bile production during simulated transplantation,"[1]; −10° C., 1 day",did produce bile
same,lactate clearance after first hour of simulated transplantation,"[1]; −10° C., 1 day",cleared lactate
same,"microscopic tissue structure (H&E, blinded pathologist)","[1]; −10° C., 1 day",favorable to modest results
same,AST levels,"[1]; −10° C., 1 day, at 1 h",567±172 U/L
same,oxygen uptake during simulated transplantation,"[1]; −10° C., 1 day, at 1 h",36.9 ± 2.34 µL O2/min/g
same,oxygen uptake during simulated transplantation,"[1]; −10° C., 1 day, at 2 h",38.2 ± 3.66 µL O2/min/g
same,vascular resistance during simulated transplantation,"[1]; −10° C., 1 day, at 2 h",0.019±0.011 mmHg*min*mL^−1*g^−1
same,weight gain during simulated transplantation,"[1]; −10° C., 1 day, at 2 h",4.00±9.20%
same,AST levels,[1]; [3],979±520 U/L and 979±521 U/L
same,portal lactate concentration,[1]; [3],2.95 ± 1.73 mM
same,total cumulative bile volume,[1]; [3],3.56 ± 4.02 µL/g
same,lactate clearance during simulated transplantation,"[1]; −15° C., 1 and 5 days",no lactate clearance was observed
same,bile production during simulated transplantation,"[1]; −15° C., 1 day",6.11 ± 4.69 µL/g
same,tissue adenylate energy charge,"[1]; −15° C., 1 day",0.061±0.019
same,AST levels,"[1]; −15° C., 1 day, at 1 h",1283±224 U/L
same,oxygen uptake during simulated transplantation,"[1]; −15° C., 1 day, at 1 h",23.5 ± 4.68 µL O2/min/g
same,AST levels,"[1]; −15° C., 1 day, at 2 h",1995±530 U/L
same,lactate level at end of simulated transplantation,"[1]; −15° C., 1 day, at 2 h",5.21 ± 2.67 mM
same,maximum ALT,"[1]; −15° C., 1 day, at 2 h",2335±597 U/L
same,maximum potassium,"[1]; −15° C., 1 day, at 2 h",5.05 ± 0.48 mM
same,oxygen uptake during simulated transplantation,"[1]; −15° C., 1 day, at 2 h",24.9 ± 2.38 µL O2/min/g
same,vascular resistance during simulated transplantation,"[1]; −15° C., 1 day, at 2 h",0.021±0.010 mmHg*min*mL^−1*g^−1 and 0.011±0.004 mmHg*min*mL^−1*g^−1
same,bile production during simulated transplantation,"[1]; −15° C., 5 days",3.32 ± 2.43 µL/g
same,microscopic tissue structure,"[1]; −15° C., 5 days",moderate to marked loss of LSECs
same,tissue adenylate energy charge,"[1]; −15° C., 5 days",0.062±0.029
same,lactate level at end of simulated transplantation,"[1]; −15° C., 5 days, at 2 h",5.73 ± 1.29 mM
same,maximum ALT,"[1]; −15° C., 5 days, at 2 h",2316±242 U/L
same,maximum potassium,"[1]; −15° C., 5 days, at 2 h",4.95 ± 0.48 mM
same,oxygen uptake during simulated transplantation,"[1]; −15° C., 5 days, at 2 h",25.4 ± 9.78 µL O2/min/g
same,vascular resistance during simulated transplantation,"[1]; −15° C., 5 days, at 2 h",0.021±0.021 mmHg*min*mL^−1*g^−1
same,weight gain during simulated transplantation,"[1]; −15° C., 5 days, at 2 h",30.25±5.56%
